Source: article PMC7290078, “Agonist bias and agonist‐dependent antagonism at corticotrophin releasing factor receptors” (Pharmacology Research & Perspectives, 2020)
Entries after “also recorded” stand apart in the source; their conditions may differ.

How the values were obtained:
[1] = biological target: T1, CRF1 receptor (hCRF1α) (Homo sapiens, UniProt P34998); experiment: Antagonism of agonist-mediated IP1 accumulation in Cos7 cells expressing CRF1 receptors; type: cell-based; conditions: for effect on agonist efficacy β: could not be determined, assumed; for allosteric effect α: operational model of allosterism; for antagonist potency (pKB): Gaddum method for insurmountable antagonism, mean ± SEM, n = 5
T1 construct: host or cells: Cos7 cells, transient transfection (PEI), pcDNA3.0/3.1 vector
T1 sequence (P34998 24-415): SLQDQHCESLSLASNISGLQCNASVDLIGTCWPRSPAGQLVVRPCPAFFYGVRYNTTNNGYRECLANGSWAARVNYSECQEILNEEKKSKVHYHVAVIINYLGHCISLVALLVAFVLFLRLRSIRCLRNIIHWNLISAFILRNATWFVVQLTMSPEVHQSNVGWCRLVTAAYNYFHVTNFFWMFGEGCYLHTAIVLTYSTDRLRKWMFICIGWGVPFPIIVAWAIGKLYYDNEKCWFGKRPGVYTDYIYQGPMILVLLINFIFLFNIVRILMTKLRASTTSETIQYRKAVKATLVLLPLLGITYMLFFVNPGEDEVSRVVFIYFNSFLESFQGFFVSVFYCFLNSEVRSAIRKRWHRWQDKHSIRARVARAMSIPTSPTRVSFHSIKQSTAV
Text: Plasmids containing hCRF1α and hCRF2α (GenBank accession numbers AY457172 and AY449734) were obtained from the cDNA Resource Centre (Bloomsburg University) and are referred to as CRF1 and CRF2 in this manuscript. Hemagglutinin (HA) epitope‐tagged human Calcitonin (CT) receptor (CT(a) splice variant) and myc‐tagged human RAMP1 were used as described previously. ^27 HA‐tagged human calcitonin receptor‐like receptor (CLR), N‐terminal FLAG‐tagged human RAMP3 and N‐terminal myc‐tagged human RAMP3 were a gift from Professor David Poyner (Aston University) and Professor Patrick Sexton (Monash University), respectively. N‐terminal FLAG‐tagged human RAMP2 was used as described previously. ^28 All receptors and RAMPs were cloned in pcDNA3.0 or pcDNA3.1 plasmid vectors. All plasmid inserts were sequenced at the Centre for Genomics, Proteomics and Metabolomics (University of Auckland) and the sequences were verified prior to use.
Cos7, HEK‐293S, and HEK‐293T cells were cultured as described previously. ^28 , ^29 Cos7 cells were originally supplied by the ATCC to Associate Professor Nigel Birch (University of Auckland). HEK‐293S cells were a gift from Professor David Poyner (Aston University) and HEK‐293T cells a gift from Professor John Taylor (University of Auckland). Briefly, all cell lines were cultured in Dulbecco's Modified Eagle Medium (DMEM) supplemented with 8% heat inactivated fetal bovine serum (FBS) and maintained in a humidified incubator at 37°C with 5% CO2. For transfection, cells were counted (Countess CounterTM; Life Technologies) and plated at a density of 20 000 cells per well in 96‐well plates. The cells were transiently transfected 48 hours prior to assaying using polyethylenimine (PEI), as described previously. ^28 , ^29 In all experiments a total of 0.25 μg DNA was transfected per well. In the majority of experiments 0.25 μg DNA of receptor‐containing plasmid or the pcDNA3.1 plasmid without an insert was used. For experiments involving RAMPs, 0.125 μg of receptor DNA and 0.125 μg of RAMP‐containing plasmid DNA were transfected to give a 1:1 ratio of receptor to RAMP. Where the RAMP or receptor were transfected alone, the ratio of DNA was made up with the pcDNA3.1 plasmid.
The IP‐one Gq assay kit (Cisbio) was used to quantify accumulated myo‐inositol‐1‐phosphate (IP1), a by‐product of IP3 produced after receptor‐mediated Gαq activation in Cos7 and HEK‐293S cells. Briefly, culture media was removed and replaced with DMEM containing 0.1% BSA for 30 minutes at 37°C. Cells were then incubated with media containing 50 mmol/L lithium chloride (LiCl) for an additional 0‐120 minutes (time courses) or 90 minutes at 37°C in the presence or absence of an antagonist. Agonist concentrations of 1 pmol/L to 10 µmol/L were used for agonist only assays or 10 pmol/L to 10 µmol/L concentrations for antagonist experiments. After cell stimulation, 14 µL of stimulation buffer was added to each well. Three microlitres of each detection antibody were added in turn to the plate and incubated at room temperature for 1 hour. Fifteen microliters of sample was then transferred to a 384‐well optiplate and read by an Envision plate reader (PerkinElmer). IP1 concentrations were calculated from a standard curve generated in duplicate.
In all experiments the position of peptides and antagonists (pharmacology) or transfected receptors (ELISAs) on assay plates was randomized during each independent experiment, which are independent biological replicates. In all cases, duplicate, triplicate, or quadruplicate technical replicates were conducted for each independent experiment. For transfected cell experiments, each independent experiment involved plating cells from a distinct passage, separate transient transfection and separate signaling or ELISA assays, constituting experimental n. […]

[2] = biological target: T1, CRF1 receptor (hCRF1α); experiment: Antagonism of agonist-mediated cAMP accumulation in Cos7 cells expressing CRF1 receptors; type: cell-based; conditions: for allosteric effect α / effect on agonist efficacy β: CRF1, operational model of allosterism; for antagonist potency (pKB): hCRF1α, global Schild analysis, mean ± SEM

SMILES: CCC(CC)Nc1cc(C)nc(Oc2c(C)cc(C)cc2C)c1C [CP‐376,395]
- potency against CRF‐mediated relative to UCN1‐mediated IP1 accumulation ([1]; CRF1 receptor): approximately 8 fold
- mode of antagonism ([1]; IP1 accumulation): non‐competitive antagonist of IP1 accumulation
- effect on agonist efficacy β ([1]; agonist CRF, IP1, CRF1): ~ 0
- allosteric effect α ([1]; agonist CRF, IP1, CRF1): 0.03
- antagonist potency (pKB) ([1]; agonist CRF, IP1, hCRF1α): 7.55 ± 0.10
- effect on agonist efficacy β ([1]; agonist UCN1, IP1, CRF1): ~ 0
- allosteric effect α ([1]; agonist UCN1, IP1, CRF1): 0.15
- antagonist potency (pKB) ([1]; agonist UCN1, IP1, hCRF1α): 6.67 ± 0.08
- effect on agonist E max ([1]; antagonism of CRF and UCN1‐mediated IP1, CRF1 receptor, F tests): a reduction in E max
- partial agonism / intrinsic activity [2]: No intrinsic activity; also recorded: no evidence of partial agonism
- effect of pre‐incubation on antagonism ([2]; 75 minute pre‐incubation, preliminary cAMP antagonism experiment): did not increase antagonism or result in a reduction of E max
- effect on agonist E max ([2]; CRF and UCN1‐mediated cAMP, CRF1 receptor, F tests): no significant difference in E max values
- allosteric effect α ([2]; agonist CRF, cAMP): 0.005
- effect on agonist efficacy β ([2]; agonist CRF, cAMP): 0.63
- antagonist potency (pKB) ([2]; agonist CRF, cAMP, n = 5): 6.90 ± 0.20
- allosteric effect α ([2]; agonist UCN1, cAMP): 0.03
- effect on agonist efficacy β ([2]; agonist UCN1, cAMP): 0.63
- antagonist potency (pKB) ([2]; agonist UCN1, cAMP, n = 5 (CP‐376,395), n = 3 (astressin2B)): 5.32 ± 0.14
- potency at CRF1 receptor compared to CRF2 receptor ([2]; antagonism of CRF‐induced cAMP signaling): at least 800 fold
- potency at CRF1 receptor compared to CRF2 receptor ([2]; antagonism of UCN1‐induced cAMP signaling): ≥ 20 fold
- mode of antagonism ([2]; cAMP accumulation): competitive antagonist of cAMP accumulation
